{"source": "patent US9827315B2", "about": "“Compositions of pharmaceutical actives containing diethylene glycol monoethyl ether or other alkyl derivatives” (THEMIS MEDICARE LIMITED, priority 2013, dated 2017)", "origin": "cited, not measured here", "note": "Structures can show the parent of a compound that is named as a salt."}
{"settings": "at 22° C.; cited from earlier work", "units": {"solubility (solvent not given)": "g/100 mL"}}
{"compound": "NC(Cc1ccc(N(CCCl)CCCl)cc1)C(=O)O", "note": "(stereo not shown) [Melphalan]", "solubility (solvent not given)": "< 0.1"}
{"settings": "at 25° C.; cited from earlier work", "units": {"viscosity of vehicle": "Cps"}}
{"compound": "CCCCCCCC/C=C\\CCCCCCCC(=O)OCC", "note": "[Ethyl oleate]", "viscosity of vehicle": 3.9}
{"compound": "CC(=O)S[C@@H]1CC2=CC(=O)CC[C@]2(C)[C@H]2CC[C@@]3(C)[C@@H](CC[C@@]34CCC(=O)O4)[C@H]12", "note": "[Spironolactone, 17-hydroxy-7α-mercapto-3-oxo-17α-pregn-4-ene-21-carboxylic acid, γ-lactone acetate]", "solubility in water": "about 22 mg/L"}
{"settings": "at pH 6.5; cited from earlier work", "units": {"solubility in water": "mg/mL"}}
{"compound": "Brc1c(NC2=NCCN2)ccc2nccnc12", "note": "[Brimonidine tartarate]", "solubility in water": 34}
{"settings": "at pH 7.0; cited from earlier work"}
{"compound": "COC(=O)[C@@H]1CC2=CC(=O)CC[C@]2(C)[C@@]23O[C@@H]2C[C@@]2(C)[C@@H](CC[C@@]24CCC(=O)O4)[C@H]13", "note": "[Eplerenone, pregn-4-ene-7,21-dicarboxylic acid, 9,11-epoxy-17-hydroxy-3-oxo, γ-lactone, methyl ester (7α, 11α, 17α)]", "octanol/water partition coefficient": "approximately 7.1"}
{"settings": "cited from earlier work"}
{"compound": "Cl.N[C@@H]1CCCCN(c2c(F)cc3c(=O)c(C(=O)O)cn(C4CC4)c3c2Cl)C1", "note": "[Besifloxacin]", "solubility in DMSO": "Sparingly soluble in methanol, Sparingly soluble in water (1 mg/mL), DMSO (<1 mg/mL)", "solubility in water": "Sparingly soluble in methanol, Sparingly soluble in water (1 mg/mL), DMSO (<1 mg/mL)"}
{"compound": "Cc1ccc(-c2ncc(Cl)cc2-c2ccc(S(C)(=O)=O)cc2)cn1", "note": "[Etoricoxib, 5-chloro-6′-methyl-3-[4-(methylsulfonyl)phenyl]-2,3′-bipyridine]", "solubility in water": "about 3.3 mg/L"}
{"settings": "dissolved in 30 ml water; cited from earlier work", "units": {"water solubility": "g"}}
{"compound": "CC[C@H]1OC(=O)[C@H](C)[C@@H](O[C@H]2C[C@@](C)(OC)[C@@H](O)[C@H](C)O2)[C@H](C)[C@@H](O[C@@H]2O[C@H](C)C[C@H](N(C)C)[C@H]2O)[C@](C)(O)C[C@@H](C)/C(=N\\OCOCCOC)[C@H](C)[C@@H](O)[C@]1(C)O", "note": "[Roxithromycin, (3R,4S,5S,6R,7R,9R,11S,12R,13S,14R)-6-[(2S,3R,4S,6R)-4-d-3-hydroxy-6-methyloxan-2-yl]oxy-14-ethyl-7,12,13-trihydroxy-4-[(2R,4R,5S,6S)-5-hydroxy-4-methoxy-4,6-dimethyloxan-2-yl]oxy-10-(2-methoxyethoxymethoxyimino)-3,5,7,9,11,13-hexamethyl-1-oxacyclotetradecan-2-one]", "water solubility": 0.1}
{"settings": "water; cited from earlier work"}
{"compound": "CCC(C)n1ncn(-c2ccc(N3CCN(c4ccc(OC[C@H]5CO[C@](Cn6cncn6)(c6ccc(Cl)cc6Cl)O5)cc4)CC3)cc2)c1=O", "note": "(mixture of isomers) [Itraconazole]", "Solubility in water (descriptive)": "Soluble in organic solvents such as DMSO and dimethyl formamide. Insoluble in water."}
{"compound": "CCOC(=O)C1=C(COCCN)NC(C)=C(C(=O)OC)C1c1ccccc1Cl", "note": "(racemic) [Amlodipine besylate, 3-Ethyl-5-methyl(±)-2-[(2-aminoethoxy)methyl]4-(2-chlorophenyl)-1,4-dihydro-6-methyl-3,5-pyridinedicarboxylate, mono benzene sulphonate]", "Solubility in water (descriptive)": "slightly soluble"}
{"compound": "COC(=O)C1=C(C)NC(C)=C(C(=O)OC2CCN(Cc3ccccc3)C2)[C@H]1c1cccc([N+](=O)[O-])c1.Cl", "note": "(stereo in doubt) [Barnidipine Hydrochloride, 3-(3R)-1-benzylpyrrolidin-3-yl 5-methyl 2,6-dimethyl-4-(3-nitrophenyl)-1,4-dihydropyridine-3,5-dicarboxylate]", "Solubility in water (descriptive)": "insoluble"}
{"compound": "O=C(O)COC(=O)Cc1ccccc1Nc1c(Cl)cccc1Cl", "note": "[Aceclofenac, 2-[2-[2-[(2,6-dichlorophenyl)amino]phenyl]acetyl]oxyacetic acid]", "Solubility in water (descriptive)": "practically insoluble"}
{"compound": "C=CC[C@]1(O)CC[C@H]2[C@@H]3CCC4=CCCC[C@@H]4[C@H]3CC[C@@]21C", "note": "[Allyoestrenol, (17β)-17-(prop-2-en-1-yl)estr-4-en-17-ol]", "Solubility in water (descriptive)": "practically insoluble"}
{"compound": "COC(=O)C1=C(C)NC(C)=C(C(=O)O[C@@H]2CCCN(Cc3ccccc3)C2)C1c1cccc([N+](=O)[O-])c1", "note": "(stereo partly drawn) [Benidipine Hydrochloride, O5-methyl O3-[(3R)-1-(phenylmethyl)piperidin-3-yl]2,6-dimethyl-4-(3-nitrophenyl)-1,4-dihydropyridine-3,5-dicarboxylate]", "Solubility in water (descriptive)": "practically insoluble"}
{"compound": "C=C(c1ccc(C(=O)O)cc1)c1cc2c(cc1C)C(C)(C)CCC2(C)C", "note": "[Bexarotene]", "Solubility in water (descriptive)": "Insoluble in water and slightly soluble in vegetable oils and ethanol, USP"}
{"compound": "C[C@H](CS)C(=O)N1CCC[C@H]1C(=O)O", "note": "[Captopril, (2S)-1-[(2S)-2-methyl-3-sulfanylpropanoyl]pyrrolidine-2-carboxylic acid]", "Solubility in water (descriptive)": "easily soluble"}
{"compound": "CCCC(=O)OCOC(=O)C1=C(C)NC(C)=C(C(=O)OC)[C@H]1c1cccc(Cl)c1Cl", "note": "[Clevidipine, O3-(butanoyloxymethyl) O5-methyl (4R)-4-(2,3-dichlorophenyl)-2,6-dimethyl-1,4-dihydropyridine-3,5dicarboxylate]", "Solubility in water (descriptive)": "practically insoluble"}
{"compound": "Cc1c(OCC(F)(F)F)ccnc1C[S@@+]([O-])c1nc2ccccc2[nH]1", "note": "[Dexlansoprazole, (R)-(+)2-([3-methyl-4-(2,2,2-trifluoroethoxy)pyridin-2-yl]methylsulfinyl)-1H-benzo[d]imidazole]", "Solubility in water (descriptive)": "very slightly soluble"}
{"compound": "CCN(CC)CCOC(=O)C1(C2CCCCC2)CCCCC1", "note": "[Dicyclomine Hydrocloride, Dicyclomine]", "Solubility in water (descriptive)": "soluble"}
{"compound": "CCCC(=O)O[C@]1(C(=O)COC(C)=O)CC[C@H]2[C@@H]3C[C@H](F)C4=CC(=O)C=C[C@]4(C)[C@@]3(F)[C@@H](O)C[C@@]21C", "note": "[Difluprednate]", "Solubility in water (descriptive)": "Very low solubility in water"}
{"compound": "COC(=O)[C@@H]1CC2=CC(=O)CC[C@]2(C)[C@@]23O[C@@H]2C[C@@]2(C)[C@@H](CC[C@@]24CCC(=O)O4)[C@H]13", "note": "[Eplerenone, pregn-4-ene-7,21-dicarboxylic acid, 9,11-epoxy-17-hydroxy-3-oxo, γ-lactone, methyl ester (7α, 11α, 17α)]", "Solubility in water (descriptive)": "very slightly soluble"}
{"compound": "C#C[C@]1(O)CC[C@H]2[C@@H]3CCc4cc(O)ccc4[C@H]3CC[C@@]21C", "note": "[Ethinyl estradiol, 19-nor-17α-pregna-1,3,5(10)-trien-20-yne-3,17-diol]", "Solubility in water (descriptive)": "practically insoluble"}
{"compound": "O=C1[C@H](CC[C@H](O)c2ccc(F)cc2)[C@@H](c2ccc(O)cc2)N1c1ccc(F)cc1", "note": "[Ezetimibe]", "Solubility in water (descriptive)": "Freely to very soluble in ethanol, methanol, and acetone and practically insoluble in water."}
{"compound": "OC(Cn1cncn1)(Cn1cncn1)c1ccc(F)cc1F", "note": "[Fluconazole, 2-(2,4-difluorophenyl)-1,3-bis(1H-1,2,4-triazol-1-yl)propan-2-ol]", "Solubility in water (descriptive)": "very slightly soluble"}
{"compound": "CC(=O)O[C@]1(C(C)=O)CC[C@H]2C3C[C@H](C)C4=CC(=O)C=CC4(C)[C@@]3(F)[C@@H](O)CC21C", "note": "(stereo partly shown) [Flurometholone Acetate]", "Solubility in water (descriptive)": "Freely soluble in chloroform and acetone, soluble in ethanol, very slightly soluble in water"}
{"compound": "CCC(=O)O[C@]1(C(=O)SCF)[C@H](C)C[C@H]2[C@@H]3C[C@H](F)C4=CC(=O)C=C[C@]4(C)[C@@]3(F)[C@@H](O)C[C@@]21C", "note": "[Fluticasone Propionate]", "Solubility in water (descriptive)": "It is practically insoluble in water, freely soluble in dimethyl sulfoxide and dimethylformamide, and slightly soluble in methanol and 95% ethanol. Solubility in Diethylene glycol monoethyl ether is 14.7 mg/ml."}
{"compound": "CN1C(C(=O)Nc2ccccn2)=C(O)c2sc(Cl)cc2S1(=O)=O", "note": "[Lornoxicam, (3E)-6-chloro-3-[hydroxy(pyridin-2-ylamino)methylene]-2-methyl-2,3-dihydro-4H-thieno[2,3-e][1,2]thiazin-4-one 1,1-dioxide]", "Solubility in water (descriptive)": "hardly soluble"}
{"compound": "CC(=O)O[C@]1(C(C)=O)CC[C@H]2[C@@H]3C[C@H](C)C4=CC(=O)CC[C@]4(C)[C@H]3CC[C@@]21C", "note": "[MPA, 17α-hydroxy-6α-methylpregn-4-ene-3,20-dione acetate]", "Solubility in water (descriptive)": "insoluble"}
{"compound": "COc1ccccc1OCC(O)COC(N)=O", "note": "(stereo not shown) [Methocarbamol, 3-(2-methoxyphenoxy)-1,2-propanediol 1-carbamate]", "Solubility in water (descriptive)": "sparingly soluble"}
{"compound": "CCCCCCCCCC(=O)O[C@H]1CC[C@H]2[C@@H]3CCC4=CC(=O)CC[C@@H]4[C@H]3CC[C@]12C", "note": "[Nandrolone Decoanate, Estr-4-en-3-one,17-[(1-oxodecyl)oxy]-,(17b)-]", "Solubility in water (descriptive)": "practically insoluble"}
{"compound": "COCCOC(=O)C1=C(C)NC(C)=C(C(=O)OC(C)C)C1c1cccc([N+](=O)[O-])c1", "note": "(stereo not shown) [Nimodipine]", "Solubility in water (descriptive)": "Soluble in methanol. Insoluble in water in beta cyclodextrin"}
{"compound": "C#C[C@]1(OC(=O)CCCCCC)CC[C@H]2[C@@H]3CCC4=CC(=O)CC[C@@H]4[C@H]3CC[C@@]21C", "note": "[Norethisterone enantate, 17alpha-Ethynyl-19-nortestosterone 17-heptanoate]", "Solubility in water (descriptive)": "practically insoluble"}
{"compound": "CC1=C(C/C=C(\\C)CCC[C@H](C)CCC[C@H](C)CCCC(C)C)C(=O)c2ccccc2C1=O", "note": "[Phytomenadione, 2-methyl-3-phytyl-1,4-naphthoquinone]", "Solubility in water (descriptive)": "insoluble"}
{"compound": "CC(=O)OCC(=O)[C@@]1(O)CC[C@H]2[C@@H]3CCC4=CC(=O)C=C[C@]4(C)[C@H]3[C@@H](O)C[C@@]21C", "note": "[Prednisolone acetate, 11β,17,21-Trihydroxypregna-1,4-diene-3,20-dione 21-acetate]", "Solubility in water (descriptive)": "practically insoluble"}
{"compound": "CC[C@H]1OC(=O)[C@H](C)[C@@H](O[C@H]2C[C@@](C)(OC)[C@@H](O)[C@H](C)O2)[C@H](C)[C@@H](O[C@@H]2O[C@H](C)C[C@H](N(C)C)[C@H]2O)[C@](C)(O)C[C@@H](C)/C(=N\\OCOCCOC)[C@H](C)[C@@H](O)[C@]1(C)O", "note": "[Roxithromycin, (3R,4S,5S,6R,7R,9R,11S,12R,13S,14R)-6-[(2S,3R,4S,6R)-4-d-3-hydroxy-6-methyloxan-2-yl]oxy-14-ethyl-7,12,13-trihydroxy-4-[(2R,4R,5S,6S)-5-hydroxy-4-methoxy-4,6-dimethyloxan-2-yl]oxy-10-(2-methoxyethoxymethoxyimino)-3,5,7,9,11,13-hexamethyl-1-oxacyclotetradecan-2-one]", "Solubility in water (descriptive)": "almost insoluble"}
{"compound": "C[C@]12Cc3c[nH]nc3C[C@@H]1CC[C@@H]1[C@@H]2CC[C@@]2(C)[C@H]1CC[C@]2(C)O", "note": "[Stanozolol]", "Solubility in water (descriptive)": "practically insoluble"}
{"compound": "CN1CC(=O)N2[C@H](c3ccc4c(c3)OCO4)c3[nH]c4ccccc4c3C[C@@H]2C1=O", "note": "[Tadalafil]", "Solubility in water (descriptive)": "Insoluble in water and very slightly soluble in ethanol"}
{"compound": "CC1=C(/C=C/C(C)=C/C=C/C(C)=C/C(=O)O)C(C)(C)CCC1", "note": "[Tretinoin]", "Solubility in water (descriptive)": "Insoluble in water"}
{"settings": "with slight warming; cited from earlier work", "units": {"solubility in water": "mg/mL"}}
{"compound": "COc1cccc2c1C(=O)c1c(O)c3c(c(O)c1C2=O)C[C@@](O)(C(=O)CO)C[C@@H]3O[C@H]1C[C@H](N)[C@H](O)[C@H](C)O1", "note": "[Doxorubicin]", "solubility in water": 10}
